Measured values reported in article PMC9570328, “Spatial Structure of NanoFAST in the Apo State and in Complex with its Fluorogen HBR-DOM2” (International Journal of Molecular Sciences, 2022).

What was measured:
[1] = target: T1, nanoFAST (Halorhodospira halophila, UniProt P16113, C69G/Y94W/T95M/F96I/D97P/Y98T/Q99S/M100R); test: solution NMR structure of the complex, […] intermolecular NOE distances; assay type: binding; conditions: cited from earlier work
T1 construct: gene pyp; nanoFAST: FAST lacking the first 26 residues (98 amino acids); engineered variant of PYP
T1 sequence (P16113 27-125 C69G/Y94W/T95M/F96I/D97P/Y98T/Q99S/M100R): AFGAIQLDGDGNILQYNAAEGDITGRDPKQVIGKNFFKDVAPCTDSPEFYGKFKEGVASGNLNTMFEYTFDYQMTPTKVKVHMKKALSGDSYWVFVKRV

[2] = target: T1, nanoFAST; test: fluorescence titration; weak binding, seen only at […] protein
[3] = target: T2, FAST (Halorhodospira halophila, UniProt P16113, C69G/D97P/F96I/M100R/Q99S/T95M/Y94W/Y98T); test: spectrofluorometric titration (Table S1); assay type: binding
T2 construct: gene pyp; full-length FAST (engineered variant of PYP)
T2 sequence (P16113 whole entry C69G/Y94W/T95M/F96I/D97P/Y98T/Q99S/M100R): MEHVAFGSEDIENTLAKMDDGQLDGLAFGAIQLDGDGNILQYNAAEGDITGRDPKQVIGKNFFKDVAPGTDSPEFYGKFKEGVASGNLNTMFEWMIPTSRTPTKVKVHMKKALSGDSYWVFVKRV

SMILES | Kd [3] [nM] | also measured
COc1cc(/C=C2\SC(=S)NC2=O)c(OC)cc1O [HBR-DOM2] |  | Kd [1]: 850 nM
COc1cc(O)ccc1/C=C1N=C(/C=C/c2ccncc2)N(C)C\1=O [N871b] |  | fluorescence titration; weak binding, seen only at ~100 μM protein [2]: N871b is bright when bound to nanoFAST, but its binding affinity is extremely weak
COc1cc(/C=C2\N=C(C)N(C)C2=O)c(OC)cc1O [N1036] | 710 | 
COc1cc(/C=C2N=C(/C=C/c3ccncc3)N(C)C\2=O)c(OC)cc1O [N1048] | 150 | 
